Assay results: US12077503B2, “Substituted cyclic amides and their use as herbicides” (FMC CORPORATION, priority 2015, dated 2024)

Assays:
Format in all cases: in vivo
[1] = test system: wheat (Triticum aestivum); assay: Test A postemergence; settings: Triticum aestivum, post-emergence, 240 h
Summary of the method: (§1)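 Preemergence directed soil spray on seeded pots, or postemergence application to plants 2–10 cm, one- to two-leaf. Solvent mixture non-phytotoxic, with surfactant. Scored ~10 d later, visually, 0–100 vs untreated.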

corn (Zea mays) = assay: Test A postemergence; settings: Zea mays, post-emergence, 240 h
Summary of the method: as §1

[2] = test system: Galium (catchweed bedstraw, Galium aparine); assay: Test A postemergence; settings: Galium, post-emergence, 240 h
Summary of the method: as §1

[3] = test system: giant foxtail (Setaria faberii); assay: Test A postemergence; settings: Setaria faberi, post-emergence, 240 h
Summary of the method: as §1

Kochia (Kochia scoparia) [4] = assay: Test A postemergence; settings: Bassia scoparia, post-emergence, 240 h
Summary of the method: as §1

[5] = test system: blackgrass (Alopecurus myosuroides); assay: Test A postemergence; settings: Alopecurus myosuroides, post-emergence, 240 h
Summary of the method: as §1

[6] = test system: barnyardgrass (Echinochloa crus-galli); assay: Test A postemergence; settings: Echinochloa crus-galli, post-emergence, 240 h
Summary of the method: as §1

[7] = test system: pigweed (Amaranthus retroflexus); assay: Test A postemergence; settings: Amaranthus retroflexus, post-emergence, 240 h
Summary of the method: as §1

[8] = test system: ragweed (common ragweed, Ambrosia elatior); assay: Test A postemergence; settings: Ambrosia artemisiifolia, post-emergence, 240 h
Summary of the method: as §1

[9] = test system: ryegrass, Italian (Italian ryegrass, Lolium multiflorum); assay: Test A postemergence; settings: Lolium multiflorum, post-emergence, 240 h
Summary of the method: as §1

[10] = test system: giant foxtail (Setaria faberii); assay: Test A preemergence; settings: Setaria faberi, pre-emergence, 240 h, 0 to 100 scale where 0 is no effect and 100 is complete control, read-out: Foxtail, Giant plant response rating
Summary of the method: as §1

Kochia (Kochia scoparia) [11] = assay: Test A preemergence; settings: Bassia scoparia, pre-emergence, 240 h, 0 to 100 scale where 0 is no effect and 100 is complete control, read-out: Kochia plant response rating
Summary of the method: as §1

[12] = test system: barnyardgrass (Echinochloa crus-galli); assay: Test A preemergence; settings: Echinochloa crus-galli, pre-emergence, 240 h, 0 to 100 scale where 0 is no effect and 100 is complete control, read-out: Barnyardgrass plant response rating
Summary of the method: as §1

[13] = test system: pigweed (Amaranthus retroflexus); assay: Test A preemergence; settings: Amaranthus retroflexus, pre-emergence, 240 h, 0 to 100 scale where 0 is no effect and 100 is complete control, read-out: Pigweed plant response rating
[14] = test system: ragweed (common ragweed, Ambrosia elatior); assay: Test A preemergence; settings: Ambrosia artemisiifolia, pre-emergence, 240 h, 0 to 100 scale where 0 is no effect and 100 is complete control, read-out: Ragweed plant response rating
Summary of the method: as §1

[15] = test system: ryegrass, Italian (Italian ryegrass, Lolium multiflorum); assay: Test A preemergence; settings: Lolium multiflorum, pre-emergence, 240 h, 0 to 100 scale where 0 is no effect and 100 is complete control, read-out: Ryegrass, Italian plant response rating
Summary of the method: as §1

[16] = test system: sedge, umbrella (small-flower umbrella sedge, Cyperus difformis); assay: Test B flooded paddy test; settings: Cyperus difformis, 250 g ai/ha, Flood; 0 to 100 scale where 0 is no effect and 100 is complete control; read-out: Sedge, Umbrella plant response rating
Summary of the method: (§2)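 Plants at 2-leaf stage flooded to 3 cm above soil, with compounds applied directly to paddy water and that depth maintained. Plants kept in greenhouse 13–15 d. Visual rating versus controls on a 0 (no effect) to 100 (complete control) scale.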

rice (Oryra sativa) = assay: Test B flooded paddy test; settings: Oryza sativa, 250 g ai/ha, Flood; 0 to 100 scale where 0 is no effect and 100 is complete control; read-out: Rice plant response rating
Summary of the method: as §2

[17] = test system: barnyardgrass (Echinochloa crus-galli); assay: Test B flooded paddy test; settings: Echinochloa crus-galli, 250 g ai/ha, Flood; 0 to 100 scale where 0 is no effect and 100 is complete control; read-out: Barnyardgrass plant response rating
Summary of the method: as §2

[18] = test system: ducksalad (Heteranthera limosa); assay: Test B flooded paddy test; settings: Heteranthera limosa, 250 g ai/ha, Flood; 0 to 100 scale where 0 is no effect and 100 is complete control; read-out: Ducksalad plant response rating
Summary of the method: as §2

[19] = 125 g ai/ha, preemergence, approx. 10 d

C=C(C)c1cccc([C@H]2CN(C)C(=O)[C@@H]2C(=O)Nc2cccc(F)c2F)c1 [Compound 1085]
plant injury at 125 g/ha ([1]; 125 g ai/ha, postemergence, visual injury on 0 to 100 scale (0 no effect, 100 complete control), approx. 10 d, read-out: Wheat plant response rating): 20%
plant injury at 31 g/ha ([1]; Postemergence, 31 g ai/ha, visual injury after approx. 10 d, 0 to 100 scale, 0 no effect, 100 complete control, read-out: Plant response rating, Wheat): 0%
plant injury at 125 g/ha (corn (Zea mays); 125 g ai/ha, postemergence, visual injury on 0 to 100 scale (0 no effect, 100 complete control), approx. 10 d, read-out: Corn plant response rating): 20%
Corn plant response rating (crop injury, 0 = no effect, 100 = complete kill) at 31 g/ha (corn (Zea mays); Postemergence, 31 g ai/ha, visual injury after approx. 10 d, 0 to 100 scale, 0 no effect, 100 complete control): 20%
pest or weed control at 125 g/ha ([2]; 125 g ai/ha, postemergence, visual injury on 0 to 100 scale (0 no effect, 100 complete control), approx. 10 d, read-out: Galium plant response rating): 60%
pest or weed control at 31 g/ha ([2]; Postemergence, 31 g ai/ha, visual injury after approx. 10 d, 0 to 100 scale, 0 no effect, 100 complete control, read-out: Plant response rating, Galium): 40%
pest or weed control at 125 g/ha ([3]; 125 g ai/ha, postemergence, visual injury on 0 to 100 scale (0 no effect, 100 complete control), approx. 10 d, read-out: Foxtail, Giant plant response rating): 60%
pest or weed control at 31 g/ha ([3]; Postemergence, 31 g ai/ha, visual injury after approx. 10 d, 0 to 100 scale, 0 no effect, 100 complete control, read-out: Plant response rating, Foxtail, Giant): 0%
pest or weed control at 125 g/ha (Kochia (Kochia scoparia) [4]; 125 g ai/ha, postemergence, visual injury on 0 to 100 scale (0 no effect, 100 complete control), approx. 10 d, read-out: Kochia plant response rating): 20%
pest or weed control at 31 g/ha (Kochia (Kochia scoparia) [4]; Postemergence, 31 g ai/ha, visual injury after approx. 10 d, 0 to 100 scale, 0 no effect, 100 complete control, read-out: Plant response rating, Kochia): 0%
pest or weed control at 125 g/ha ([5]; 125 g ai/ha, postemergence, visual injury on 0 to 100 scale (0 no effect, 100 complete control), approx. 10 d, read-out: Blackgrass plant response rating): 20%
pest or weed control at 31 g/ha ([5]; Postemergence, 31 g ai/ha, visual injury after approx. 10 d, 0 to 100 scale, 0 no effect, 100 complete control, read-out: Plant response rating, Blackgrass): 0%
pest or weed control at 125 g/ha ([6]; 125 g ai/ha, postemergence, visual injury on 0 to 100 scale (0 no effect, 100 complete control), approx. 10 d, read-out: Barnyardgrass plant response rating): 90%
pest or weed control at 31 g/ha ([6]; Postemergence, 31 g ai/ha, visual injury after approx. 10 d, 0 to 100 scale, 0 no effect, 100 complete control, read-out: Plant response rating, Barnyardgrass): 40%
pest or weed control at 125 g/ha ([7]; 125 g ai/ha, postemergence, visual injury on 0 to 100 scale (0 no effect, 100 complete control), approx. 10 d, read-out: Pigweed plant response rating): 20%
pest or weed control at 31 g/ha ([7]; Postemergence, 31 g ai/ha, visual injury after approx. 10 d, 0 to 100 scale, 0 no effect, 100 complete control, read-out: Plant response rating, Pigweed): 0%
pest or weed control at 125 g/ha ([8]; 125 g ai/ha, postemergence, visual injury on 0 to 100 scale (0 no effect, 100 complete control), approx. 10 d, read-out: Ragweed plant response rating): 0%
pest or weed control at 31 g/ha ([8]; Postemergence, 31 g ai/ha, visual injury after approx. 10 d, 0 to 100 scale, 0 no effect, 100 complete control, read-out: Plant response rating, Ragweed): 0%
pest or weed control at 125 g/ha ([9]; 125 g ai/ha, postemergence, visual injury on 0 to 100 scale (0 no effect, 100 complete control), approx. 10 d, read-out: Ryegrass, Italian plant response rating): 20%
pest or weed control at 31 g/ha ([9]; Postemergence, 31 g ai/ha, visual injury after approx. 10 d, 0 to 100 scale, 0 no effect, 100 complete control, read-out: Plant response rating, Ryegrass, Italian): 0%
pest or weed control at 31 g/ha ([10]; 31 g ai/ha, Preemergence): 90%
pest or weed control at 125 g/ha [10, 19]: 100%
pest or weed control at 31 g/ha (Kochia (Kochia scoparia) [11]; 31 g ai/ha, Preemergence): 0%
pest or weed control at 125 g/ha (Kochia (Kochia scoparia) [11]; [19]): 0%
pest or weed control at 31 g/ha ([12]; 31 g ai/ha, Preemergence): 0%
pest or weed control at 125 g/ha [12, 19]: 90%
pest or weed control at 31 g/ha ([13]; 31 g ai/ha, Preemergence): 0%
pest or weed control at 125 g/ha [13, 19]: 0%
pest or weed control at 31 g/ha ([14]; 31 g ai/ha, Preemergence): 0%
pest or weed control at 125 g/ha [14, 19]: 0%
pest or weed control at 31 g/ha ([15]; 31 g ai/ha, Preemergence): 0%
pest or weed control at 125 g/ha [15, 19]: 0%
pest or weed control at 250 g/ha [16]: 0%
pest or weed control at 250 g/ha (rice (Oryra sativa)): 25%
pest or weed control at 250 g/ha [17]: 60%
pest or weed control at 250 g/ha [18]: 30%
